Assay results reported in ChEMBL document CHEMBL1136204, “Thymidine and thymidine-5'-O-monophosphate analogues as inhibitors of Mycobacterium tuberculosis thymidylate kinase” (Bioorg Med Chem Lett, 2003).

Assays:
[1] = biological target: T1, Thymidylate kinase (Mycobacterium tuberculosis) (UniProt P9WKE1); test: (§1) Kinetic parameter Vm of thymidine monophosphate kinase (TMPKmt) in Mycobacterium tuberculosis was determined; format: functional
T1 sequence (whole entry): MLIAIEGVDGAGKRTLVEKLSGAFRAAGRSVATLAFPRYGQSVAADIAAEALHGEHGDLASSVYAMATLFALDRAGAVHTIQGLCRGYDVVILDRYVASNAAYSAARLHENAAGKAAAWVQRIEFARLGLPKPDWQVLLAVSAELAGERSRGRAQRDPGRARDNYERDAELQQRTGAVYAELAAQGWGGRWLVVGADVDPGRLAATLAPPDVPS

[2] = biological target: T1, Thymidylate kinase (Mycobacterium tuberculosis); test: as §1

SMILES: O=c1[nH]c(=O)n([C@H]2C[C@H](O)[C@@H](COP(=O)(O)O)O2)cc1I
- Vm [1]: 7.5 µM/min/mg

SMILES: O=c1[nH]c(=O)n([C@H]2C[C@H](O)[C@@H](COP(=O)(O)O)O2)cc1Br
- Vm [1]: 9.8 µM/min/mg

SMILES: O=c1[nH]c(=O)n([C@H]2C[C@H](O)[C@@H](COP(=O)(O)O)O2)cc1F
- Vm [1]: 4.7 µM/min/mg

SMILES: Cc1cn([C@H]2C[C@H](O)[C@@H](COP(=O)(O)O)O2)c(=O)[nH]c1=O
- Vm [2]: 10.6 µM/min/mg

SMILES: O=c1ccn([C@H]2C[C@H](O)[C@@H](COP(=O)(O)O)O2)c(=O)[nH]1
- Vm [1]: 3.5 µM/min/mg
